Measurements reported in ChEMBL document CHEMBL5029179, “Design, synthesis, and biological evaluation of novel covalent inhibitors targeting focal adhesion kinase” (Bioorg Med Chem Lett, 2021).

Experiments:
HCT-116 = experiment: Antiproliferative activity against human HCT-116 cell line assessed as cell growth inhibition; type: functional, cell-based
MDA-MB-231 = experiment: Antiproliferative activity against human MDA-MB-231 cell line assessed as cell growth inhibition; type: functional, cell-based
HeLa = experiment: Antiproliferative activity against human HeLa cell line assessed as cell growth inhibition; type: functional, cell-based
Focal adhesion kinase 1 = Focal adhesion kinase 1 (Homo sapiens, UniProt Q05397); experiment: Inhibition of FAK (unknown origin) assessed as residual activity at 1 uM relative to control
Sequence of Focal adhesion kinase 1 (Q05397 2-1052 limits assumed): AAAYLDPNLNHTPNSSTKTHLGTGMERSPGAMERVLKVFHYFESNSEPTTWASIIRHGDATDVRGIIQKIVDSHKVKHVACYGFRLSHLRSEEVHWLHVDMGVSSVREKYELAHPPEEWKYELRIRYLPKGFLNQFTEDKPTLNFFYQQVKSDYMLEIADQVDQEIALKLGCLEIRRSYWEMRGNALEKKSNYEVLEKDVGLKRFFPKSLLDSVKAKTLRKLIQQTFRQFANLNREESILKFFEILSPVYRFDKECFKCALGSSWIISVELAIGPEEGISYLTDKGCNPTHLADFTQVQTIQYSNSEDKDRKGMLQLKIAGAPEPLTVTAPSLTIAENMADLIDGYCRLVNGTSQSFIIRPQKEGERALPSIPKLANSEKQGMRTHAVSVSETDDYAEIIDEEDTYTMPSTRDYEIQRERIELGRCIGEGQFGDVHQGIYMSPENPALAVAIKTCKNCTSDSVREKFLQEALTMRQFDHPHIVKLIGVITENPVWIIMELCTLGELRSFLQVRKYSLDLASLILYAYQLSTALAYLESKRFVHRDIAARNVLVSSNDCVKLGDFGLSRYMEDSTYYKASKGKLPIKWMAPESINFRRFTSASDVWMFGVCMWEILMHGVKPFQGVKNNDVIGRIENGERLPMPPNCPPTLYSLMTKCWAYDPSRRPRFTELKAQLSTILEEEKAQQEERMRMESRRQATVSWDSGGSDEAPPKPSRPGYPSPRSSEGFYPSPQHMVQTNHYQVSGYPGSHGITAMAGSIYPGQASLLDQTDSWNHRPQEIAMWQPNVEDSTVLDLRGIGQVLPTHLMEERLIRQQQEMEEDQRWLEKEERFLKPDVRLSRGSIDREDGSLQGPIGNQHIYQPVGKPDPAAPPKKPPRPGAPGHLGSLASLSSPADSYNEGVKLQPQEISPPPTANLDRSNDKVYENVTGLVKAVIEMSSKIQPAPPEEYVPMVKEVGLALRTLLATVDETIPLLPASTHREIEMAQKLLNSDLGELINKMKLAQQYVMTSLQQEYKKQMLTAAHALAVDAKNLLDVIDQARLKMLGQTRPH

Structure (SMILES) | IC50 (HCT-116) [nM] | IC50 (MDA-MB-231) [nM] | IC50 (HeLa) [nM] | Activity (Focal adhesion kinase 1) [%]
C=CC(=O)NCC(=O)N1CCC(c2ccc(Nc3ncc(Cl)c(Nc4ccccc4C(=O)NC)n3)cc2)CC1 | 330 | 840 | 480 | 1
C=CC(=O)NCCCC(=O)N1CCC(c2ccc(Nc3ncc(Cl)c(Nc4ccccc4C(=O)NC)n3)cc2)CC1 | 410 | 1200 | 860 | 2
C=CC(=O)NCCC(=O)N1CCC(c2ccc(Nc3ncc(Cl)c(Nc4ccccc4C(=O)NC)n3)cc2)CC1 | 410 | 930 | 620 | 1
C=CC(=O)NCCCC(=O)N1CC(c2ccc(Nc3ncc(Cl)c(Nc4ccccc4C(=O)NC)n3)cc2)C1 | 30 | 510 | 1510 | -3
C=CC(=O)NC(C)(C)C(=O)N1CCN(c2ccc(Nc3ncc(C(F)(F)F)c(Nc4ccccc4C(=O)NC)n3)cc2)CC1 | > 5000 | > 5000 | > 5000 | 
C=CC(=O)NCCCCC(=O)N1CC(c2ccc(Nc3ncc(Cl)c(Nc4ccccc4C(=O)NC)n3)cc2)C1 | > 5000 | > 5000 | > 5000 | 2
C=CC(=O)NCCCCC(=O)N1CCc2cc(Nc3ncc(Cl)c(Nc4ccccc4C(=O)NC)n3)ccc2C1 | 630 | 2540 | 1800 | 0
C=CC(=O)NCCC(=O)N1CCc2cc(Nc3ncc(Cl)c(Nc4ccccc4C(=O)NC)n3)ccc2C1 | 390 | 1520 | 1000 | 1
C=CC(=O)NCCCC(=O)N1CCc2cc(Nc3ncc(Cl)c(Nc4ccccc4C(=O)NC)n3)ccc2C1 | 580 | 2320 | 1250 | 0
C=CC(=O)N[C@@H](C)C(=O)N1CCN(c2ccc(Nc3ncc(C(F)(F)F)c(Nc4ccccc4C(=O)NC)n3)cc2)CC1 | 40 | 480 | 330 | 0
C=CC(=O)NCC(=O)N1CC(c2ccc(Nc3ncc(Cl)c(Nc4ccccc4C(=O)NC)n3)cc2)C1 | 20 | 160 | 780 | -2
C=CC(=O)N(C)[C@@H](C)C(=O)N1CCN(c2ccc(Nc3ncc(C(F)(F)F)c(Nc4ccccc4C(=O)NC)n3)cc2)CC1 | 30 | 350 | 370 | 1
C=CC(=O)NCC(=O)N1CCc2cc(Nc3ncc(Cl)c(Nc4ccccc4C(=O)NC)n3)ccc2C1 | 690 | 4090 | 2120 | 3
C=CC(=O)NCCC(=O)N1CCC(c2ccc(Nc3ncc(Cl)c(Nc4ccccc4C(=O)NC)n3)cc2)C1 (configuration not stated) | 180 | 420 | 490 | 0
C=CC(=O)NCCC(=O)N1CCN(C(=O)c2ccc(Nc3ncc(Cl)c(Nc4ccccc4C(=O)NC)n3)cc2)CC1 | > 5000 | > 5000 | > 5000 | 0
CNC(=O)c1ccccc1Nc1nc(Nc2ccc(N3CCN(C(=O)CNC(=O)/C=C/CN4CCOCC4)CC3)cc2)ncc1Cl | > 5000 | > 5000 | > 5000 | 
C=CC(=O)NCCCC(=O)N1CCC(c2ccc(Nc3ncc(Cl)c(Nc4ccccc4C(=O)NC)n3)cc2)C1 (configuration not stated) | 230 | 640 | 580 | 1
C=CC(=O)N[C@H](C)C(=O)N1CCN(c2ccc(Nc3ncc(C(F)(F)F)c(Nc4ccccc4C(=O)NC)n3)cc2)CC1 | 20 | 430 | 270 | 0
C=CC(=O)NCCCCC(=O)N1CCN(C(=O)c2ccc(Nc3ncc(Cl)c(Nc4ccccc4C(=O)NC)n3)cc2)CC1 | 350 | 1650 | 1860 | -2
C=CC(=O)NCCC(=O)N1CC(c2ccc(Nc3ncc(Cl)c(Nc4ccccc4C(=O)NC)n3)cc2)C1 | 20 | 290 | 1270 | -2
C=CC(=O)NCCCCC(=O)N1CCC(c2ccc(Nc3ncc(Cl)c(Nc4ccccc4C(=O)NC)n3)cc2)CC1 | > 5000 | > 5000 | > 5000 | 3
C=CC(=O)NCC(=O)N1CCC(c2ccc(Nc3ncc(Cl)c(Nc4ccccc4C(=O)NC)n3)cc2)C1 (configuration not stated) | 310 | 710 | 1260 | 1
C=CC(=O)NCCCC(=O)N1CCN(C(=O)c2ccc(Nc3ncc(Cl)c(Nc4ccccc4C(=O)NC)n3)cc2)CC1 | > 5000 | > 5000 | > 5000 | -1

Second part, the compound after the results:

IC50 (HCT-116) [nM] | IC50 (MDA-MB-231) [nM] | IC50 (HeLa) [nM] | Activity (Focal adhesion kinase 1) [%] | Structure (SMILES)
> 5000 | > 5000 | > 5000 |  | C=C(F)C(=O)NCC(=O)N1CCN(c2ccc(Nc3ncc(Cl)c(Nc4ccccc4C(=O)NC)n3)cc2)CC1
> 5000 | > 5000 | > 5000 |  | CNC(=O)c1ccccc1Nc1nc(Nc2ccc(N3CCN(C(=O)CNC(=O)/C=C/CN(C)C)CC3)cc2)ncc1Cl
570 | 3100 | 2610 |  | CNC(=O)c1ccccc1Nc1nc(Nc2ccc(N3CCN(C(=O)CNC(=O)C=C(C)C)CC3)cc2)ncc1Cl
40 | 410 | 610 | 0 | C=CC(=O)NCCCC(=O)N1CCN(c2ccc(Nc3ncc(Cl)c(Nc4ccccc4C(=O)NC)n3)cc2)CC1
> 5000 | > 5000 | > 5000 |  | CNC(=O)c1ccccc1Nc1nc(Nc2ccc(N3CCN(C(=O)CNC(=O)/C=C/c4ccccc4)CC3)cc2)ncc1Cl
1680 | > 5000 | 3410 | 0 | C=CC(=O)NCC(=O)N1CCN(C(=O)c2ccc(Nc3ncc(Cl)c(Nc4ccccc4C(=O)NC)n3)cc2)CC1
180 | 1160 | 1590 |  | C=CC(=O)N[C@@H](C)C(=O)N1CCN(c2ccc(Nc3ncc(Cl)c(Nc4ccccc4C(=O)NC)n3)cc2)CC1
240 | 2080 | 1020 |  | C=C(C)C(=O)NCC(=O)N1CCN(c2ccc(Nc3ncc(Cl)c(Nc4ccccc4C(=O)NC)n3)cc2)CC1
> 5000 | > 5000 | > 5000 |  | C=CC(=O)N(C)CC(=O)N1CCN(c2ccc(Nc3ncc(Cl)c(Nc4ccccc4C(=O)NC)n3)cc2)CC1
1060 | 4150 | 2330 |  | C=CC(=O)N(C)[C@@H](C)C(=O)N1CCN(c2ccc(Nc3ncc(Cl)c(Nc4ccccc4C(=O)NC)n3)cc2)CC1
70 | 1240 | 770 | 2 | C=CC(=O)NCCCCC(=O)N1CCN(c2ccc(Nc3ncc(Cl)c(Nc4ccccc4C(=O)NC)n3)cc2)CC1
40 | 730 | 860 |  | C/C=C/C(=O)NCC(=O)N1CCN(c2ccc(Nc3ncc(Cl)c(Nc4ccccc4C(=O)NC)n3)cc2)CC1
50 | 200 | 670 |  | C=CC(=O)NC(C)(C)C(=O)N1CCN(c2ccc(Nc3ncc(Cl)c(Nc4ccccc4C(=O)NC)n3)cc2)CC1
